# Non-standard residues stand in square brackets, D forms with d. Residues, ends and D or L forms follow the SMILES beside them. dPhe(4-Cl) = N[C@H](Cc1ccc(Cl)cc1)C(=O)O; d2Nal = N[C@H](Cc1ccc2ccccc2c1)C(=O)O; dCit = NC(=O)NCCC[C@@H](N)C(=O)O; d3Pal = N[C@H](Cc1cccnc1)C(=O)O
# Tested on: serum testosterone
# Assay: Second rat study: serum testosterone after cetrorelix PLGA formulations
# Type: in vivo, rats
# Method: In a second rat study serum testosterone and cetrorelix levels were measured over 12 weeks. […] The formulations found within Table 13 were injected in rats and then the testosterone was measured at 0, 1, 2, 8 and 24 hours and then daily until the end of the first week and then biweekly until week 4 and then weekly thereafter.
# FIG. 21 compares the data from the 2nd rat and 1st dog study results for testosterone levels.
smiles,measurement,value
CC(=O)N[C@H](Cc1ccc2ccccc2c1)C(=O)N[C@H](Cc1ccc(Cl)cc1)C(=O)N[C@H](Cc1cccnc1)C(=O)N[C@@H](CO)C(=O)N[C@@H](Cc1ccc(O)cc1)C(=O)N[C@H](CCCNC(N)=O)C(=O)N[C@@H](CC(C)C)C(=O)N[C@@H](CCCNC(=N)N)C(=O)N1CCC[C@H]1C(=O)N[C@H](C)C(N)=O [cetrorelix] (Ac-[d2Nal][dPhe(4-Cl)][d3Pal]SY[dCit]LRP[dA]-NH2),cetrorelix level required to inhibit testosterone production,2 ng/mL

# — US20200282008A1, “COMPOSITIONS AND METHODS FOR LONG TERM RELEASE OF GONADOTROPIN-RELEASING HORMONE (GnRH) ANTAGONISTS” (VERU INC., priority 2017, published 2020)
